Reference: PMC7268155 (F1000Research, 2020)
Counter-ions that a name gives are not always drawn.

Tests used:
[1] = system: Ebola virus replication (trVLP); assay: microbe, parasite or virus in culture; format: cell-based, Ebola Zaire; conditions: for inhibition at 10 µM / IC50: Zaire ebolavirus, HEK-293T; for inhibition at 10 µM: read-out: Inhibition at 10µM (percent inhibition of trVLP replication); for IC50: read-out: IC50 to inhibit Ebola virus (trVLP) replication
in vitro = conditions: human, Viability at 10µM (MTT viability)
HEK-293T cells = conditions: for Viability at 10µM (MTT viability): human
Leishmania spp. = conditions: cited from earlier work
Ebola virus = conditions: cited from earlier work
Plasmodium = conditions: cited from earlier work
Ebola virus disease = conditions: mouse, in vivo; cited from earlier work

Row | SMILES | inhibition at 10 µM [1] | viability at 10 µM (in vitro) | inhibitory activity in trVLP assay (in words) [1] | other results
1 | N#C/C=C/c1ccc2ccccc2n1 [2CNQ] | 3.07 ± 8.34% | 88 ± 3.63% |  | 
2 | O=C(O)/C=C/c1ccc2ccccc2n1 [2COOHQ] | 30.6 ± 6.15% | 88.5 ± 1.54% | strongly reduced the antiviral inhibition | toxicity / cell viability (in words) (HEK-293T cells): good cell viability
3 | NC/C=C/c1ccc2ccccc2n1 [2NH2Q] | 89% | 81% | having inhibitory activity | Viability at 10µM (MTT viability) (HEK-293T cells): 81.10± 2.09%; Inhibition at 10µM (percent inhibition of trVLP replication) [1]: 89.74± 6.53%; IC50 [1]: 4.66 µM
4 | OC/C=C/c1ccc2ccccc2n1 [2OHQ] | 89% | 31% | having inhibitory activity | Viability at 10µM (MTT viability) (HEK-293T cells): 31.15± 1.27%; Inhibition at 10µM (percent inhibition of trVLP replication) [1]: 89.69± 4.09%; activity against Leishmania (Leishmania spp.): in vitro and in vivo activities
5 | CCCc1ccc2ccccc2n1 [2PQSel] | 10.8 ± 32.4% | 97.6 ± 2.06% |  | activity against Leishmania (Leishmania spp.): in vitro and in vivo activities; antileishmanial activity (Leishmania spp.): antileishmanial activity
6 | CCCCCc1ccc2ccccc2n1 [2PentQ] |  |  |  | Viability at 10µM (MTT viability) (HEK-293T cells): 103.48± 0.99%; Inhibition at 10µM (percent inhibition of trVLP replication) [1]: -6.39± 9.15%
7 | OCCCCCCCCCCCCCCCCc1ccc2ccccc2n1 [2Q16OH] | -124 ± 30.6% | 74 ± 0.75% |  | 
8 | OC(Cc1ccc2ccccc2n1)c1ccccc1 (centres unmarked) [2QPOH] | -114 ± 92.5% | 88.3 ± 3.26% |  | 
9 | C(=C\c1ccc2ccccc2n1)/c1ccc2ccccc2n1 [2QQ] | 74.3 ± 13.4% | 57.31 ± 0.29% | having inhibitory activity | 
10 | C#CC(O)CCCCCCCCCCCCC#Cc1ccc2ccccc2n1 (centres unmarked) [2Qi15] | 93.3 ± 4.94% | 109.5 ± 0.25% | having inhibitory activity | 
11 | COc1ccc(/C=C/c2ccc3ccc(C(O)c4cccc(C#N)c4)c(OC)c3n2)cc1OC (centres unmarked) [AS65] | -10.2 ± 65.4% | 77.51 ± 0.4% |  | 
12 | CCN(CC)Cc1cc(Nc2ccnc3cc(Cl)ccc23)ccc1O [Amodiaquine, amodiaquine dihydrochloride dihydrate, reference compound] | 97.7 ± 10.6% | 87.7 ± 1% | significant reductions in luciferase activity | toxicity / cell viability (in words) (HEK-293T cells): without significant toxicity; inhibitory effects in pseudo-type entry assay (Ebola virus): inhibitory effects; IC50 [1]: 1.45 µM; antiplasmodial activity (Plasmodium): antiplasmodial activity
13 | CCCCCc1ccc2ccccc2n1 [BS460] |  | 107.5 ± 0.59% |  | Inhibition at 10µM (percent inhibition of trVLP replication) [1]: 4.04± 44.15%; antiplasmodial activity (Plasmodium): antiplasmodial activity
14 | CCN(CC)CCCC(C)Nc1ccnc2cc(Cl)ccc12 (centres unmarked) [Chloroquine, Chloroquine diphosphate, reference compound] | 92.2 ± 6.23% | 106 ± 1.24% | significant reductions in luciferase activity | IC50 [1]: 3.95 µM; antiplasmodial activity (Plasmodium): antiplasmodial activity; protection against Ebola virus disease (Ebola virus disease): protective
15 | Cc1ccc2ccc(Br)c(O)c2n1 [DD1] | 90.5 ± 8.32% | 59.69 ± 0.03% | having inhibitory activity | 
16 | Cc1ccc2ccc(C(=O)NCc3ccc(F)cc3)c(O)c2n1 [DD2] | 80.8 ± 1.38% | 77 ± 4.78% | having inhibitory activity | 
17 | COc1cc(Cc2c(C)nc3ccccc3c2C(=O)O)c(Cl)c2c(C)ccnc12 [DD3] | -156 ± 97.3% | 105 ± 2.54% |  | 
18 | COc1ccc(Cl)c2c(C)ccnc12 [DD4] | 49.7 ± 1.17% | 90.1 ± 1.64% |  | 
19 | Cc1ccnc2c(O)ccc(Cl)c12 [DD5] | -66.5 ± 17.8% | 51.4 ± 1.31% |  | 

Row | SMILES | inhibition at 10 µM [1] | viability at 10 µM (in vitro) | inhibitory activity in trVLP assay (in words) [1] | other results
20 | O=C(O)c1ccc2ccc(/C=C/c3cccnc3)nc2c1O [DD6] | -8.49 ± 18.6% | 96.7 ± 2.01% |  | 
21 | Cc1ccc2c(C=O)cc(C=O)c(O)c2n1 [DD7] | -31.6 ± 80.9% | 90.3 ± 1.64% |  | 
22 | CCn1cc(C(=O)O)c(=O)c2ccc(/C=C/c3ccc(O)c(O)c3)nc21 [DD8] | -74 ± 101% | 91.54 ± 0.41% |  | 
23 | CCCCOC(=O)c1ccc2ccc(/C=C/c3cc(OC)c(O)c([N+](=O)[O-])c3)nc2c1O [FS48] | -8.41 ± 60.4% | 81.5 ± 0.97% |  | 
24 | CC(=O)Nc1ccc(/C=C/c2ccc3ccc(C(=O)O)c(O)c3n2)cc1 [FZ49] | 21.8 ± 28.4% | 72.7 ± 1.22% |  | 
25 | O=C(O)c1ccc2ccc(/C=C/c3ccc([N+](=O)[O-])cc3)nc2c1O [FZ142] | 63.1 ± 2.64% | 102 ± 1.39% |  | 
26 | Oc1cccc2ccc(/C=C/c3ccc4cccc(O)c4n3)nc12 [KHD288] | -8.41 ± 60.4% | 62.7 ± 0.72% |  | 
27 | N#Cc1ccc2ccc(/C=C/c3ccc(O)c(O)c3)nc2c1O [KHD291] | -68.1 ± 58.1% | 71.17 ± 0.12% |  | 
28 | O=C(c1ccc([N+](=O)[O-])cc1)c1ccc2ccc(/C=C/c3ccc(O)c(O)c3)nc2c1O [MBN87] | -17.9 ± 51.8% | 70.5 ± 0.78% |  | 
29 | O=C(c1ccc(F)c(F)c1)c1ccc2ccc(/C=C/c3ccc(O)c(O)c3)nc2c1O [MBN91] | 81.8 ± 8.8% | 43.5 ± 0.73% | having inhibitory activity | 
30 | CCCCCCCCC(=O)c1ccc2ccc(/C=C/c3ccc(O)c(O)c3)nc2c1O [MBN111] | -48.9 ± 87.8% | 42.5 ± 4.97% |  | 
31 | Cc1ccc2ccc(C(=O)c3ccc([N+](=O)[O-])cc3)c(O)c2n1 [MBN115] |  | 77.1 ± 0.93% |  | 
32 | O=C(c1ccccn1)c1ccc2ccc(/C=C/c3ccc(O)c(O)c3)nc2c1O [MBN132] | -10.4 ± 57.7% | 105 ± 1.39% |  | 
33 | Cc1ccc(C(=O)c2ccc3ccc(/C=C/c4ccc(O)c(O)c4)nc3c2O)cc1[N+](=O)[O-] [MBN140] | -68.1 ± 58.1% | 67.6 ± 0.73% |  | 
34 | O=C(NCc1ccc(O)c(O)c1)c1ccc2cccc(C(=O)O)c2n1 [MD20] | -124 ± 93.4% | 108.3 ± 0.56% |  | 
35 | O=[N+]([O-])c1cccc(-c2cc(Br)c(O)c3nc(/C=C/c4ccc(O)c(O)c4)ccc23)c1 [MD823] | 76.2 ± 3.16% | 58.9 ± 1.59% | having inhibitory activity | 
36 | COc1ccc(CNC(=O)Nc2ccc3ccc(C(=O)O)c(O)c3n2)cc1 [TOF401] | -44.6 ± 11.9% | 106 ± 1.08% |  | 
37 | O=C(CC(=O)c1ccc2ccc(C(=O)O)c(O)c2n1)c1ccccc1 [TOF411] | 71.04 ± 0.67% | 104.9 ± 0.6% | having inhibitory activity | 
38 | C(/C=C/c1ccc2ccccc2n1)=C\c1ccccc1 [XF906] | 0.21 ± 20.3% | 104 ± 1.65% |  | 
